Results published in paper PMC7583046, “The Paralogue of the Intrinsically Disordered Nuclear Protein 1 Has a Nuclear Localization Sequence that Binds to Human Importin α3” (International Journal of Molecular Sciences, 2020).

Assays:
[1] = target: T1, human importin α3 (Impα3) (Homo sapiens, UniProt O00629); experiment: Isothermal titration calorimetry, binding to Impα3; details: Tris 50 mM pH 8, 298 K
T1 construct: Human importin α3 isoform (residues 1–521); His-tag (N); made in house; host or cells: E. coli BL21 (DE3)
T1 sequence (O00629 1-521): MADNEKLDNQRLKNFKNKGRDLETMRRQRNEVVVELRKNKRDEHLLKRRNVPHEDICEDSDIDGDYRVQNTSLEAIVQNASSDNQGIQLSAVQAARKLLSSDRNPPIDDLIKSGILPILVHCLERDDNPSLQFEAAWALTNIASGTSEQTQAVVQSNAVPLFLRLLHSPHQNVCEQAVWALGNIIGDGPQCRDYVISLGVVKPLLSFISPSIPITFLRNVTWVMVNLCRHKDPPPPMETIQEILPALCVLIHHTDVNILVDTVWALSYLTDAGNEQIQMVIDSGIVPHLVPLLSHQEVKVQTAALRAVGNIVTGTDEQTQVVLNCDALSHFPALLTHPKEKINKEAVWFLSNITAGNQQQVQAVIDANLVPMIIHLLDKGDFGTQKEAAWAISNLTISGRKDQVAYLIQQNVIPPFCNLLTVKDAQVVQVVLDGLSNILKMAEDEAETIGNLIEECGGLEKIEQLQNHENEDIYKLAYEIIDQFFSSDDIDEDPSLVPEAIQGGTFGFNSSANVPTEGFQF
From the text: (§1) Figure 4 Binding of NLS-NUNPR1L to both importin species: (A) Titration curve monitoring the changes of Impα3 fluorescence at 340 nm in the presence of NLS-NUPR1L, after excitation at 280 nm. (B) Titration curve monitoring the changes of ∆Impα3 fluorescence at 340 nm in the presence of NLS-NUPR1L, after excitation at 280 nm. […] (C) Calorimetric binding isotherms (ligand normalized heat effect per injection as a function of the ligand/protein molar ratio) for the interaction of NLS-NUPR1L with Impα3 (left) and ∆Impα3 (right) are shown, with the thermogram (raw thermal power data as a function of time) at the top of each panel. Binding parameters were estimated by non-linear least squares regression data analysis of the interaction isotherms applying a single ligand binding site model implemented in Origin 7.0. (OriginLab, Northampton, MA, USA).
(§2) The experimental set-up and data processing of ITC experiments have been described previously. […] The temperature for all experiments was 298 K. The experiments were analyzed applying a model considering a single ligand binding site (1:1 stoichiometry for the NLS-NUPR1L/Impα3 (or ∆Impα3) interaction) implemented in Origin 7.0 (OriginLab, Northampton, MA, USA).

[2] = target: T2, ∆Impα3 (Impα3 without IBB, residues 64-521) (Homo sapiens, UniProt O00629); experiment: Isothermal titration calorimetry, binding to ∆Impα3; details: Tris 50 mM pH 8, 298 K
T2 construct: codon-optimized, His-tagged ∆Impα3 (residues 64-521) were carried out using BL21 (DE3) cells; His-tag; made in house; host or cells: E. coli BL21 (DE3)
T2 sequence (O00629 64-521): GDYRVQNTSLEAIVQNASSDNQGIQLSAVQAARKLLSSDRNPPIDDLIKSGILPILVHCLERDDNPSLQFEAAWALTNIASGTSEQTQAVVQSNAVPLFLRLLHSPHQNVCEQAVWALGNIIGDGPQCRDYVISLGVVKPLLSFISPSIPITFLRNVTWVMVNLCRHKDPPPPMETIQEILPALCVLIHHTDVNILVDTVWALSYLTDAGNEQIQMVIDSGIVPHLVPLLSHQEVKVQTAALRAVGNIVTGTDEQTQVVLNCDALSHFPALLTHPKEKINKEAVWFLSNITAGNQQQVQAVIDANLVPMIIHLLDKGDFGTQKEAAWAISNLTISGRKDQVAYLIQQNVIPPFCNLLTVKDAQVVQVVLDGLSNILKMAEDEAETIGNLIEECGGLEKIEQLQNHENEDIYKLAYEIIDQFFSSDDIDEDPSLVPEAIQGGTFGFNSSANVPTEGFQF
From the text: as §1, §2

Ac-RTRREQALRTNWPAPGGHERKVAQ-NH2 [NLS-NUPR1L]
n, stoichiometry (ITC), Impα3 [1]: 1.04 ± 0.05
∆H (ITC), Impα3 [1]: -3.1 ± 0.5 kcal/mol
n, stoichiometry (ITC), ∆Impα3 [2]: 0.75 ± 0.06
∆H (ITC), ∆Impα3 [2]: -2.4 ± 0.5 kcal/mol
